Experimental data: paper PMC7899551, “Phase 1 study of Z-endoxifen in patients with advanced gynecologic, desmoid, and hormone receptor-positive solid tumors” (Oncotarget, 2021)

Assays:
[1] = Safety: adverse events (CTCAE v4.0), DLT, MTD; assay type: in vivo
Method: This was an open-label trial of Z-endoxifen in patients with advanced solid tumors (https://clinicaltrials.gov/ identifier: NCT01273168). Z-endoxifen-HCl was supplied by the Pharmaceutical Management Branch, National Cancer Institute, as 20 and 40 mg capsules; agent was administered orally once daily on a continuous schedule in 28-day cycles with a starting dose of 20 mg/day taken either 1 hour before or 2 hours after meals. Dose escalation followed a traditional 3+3 design in which patients were dose-escalated to the next dose level (DL) in cohorts of 3 patients until dose-limiting toxicity (DLT) was observed. […] Eight dose levels (DL1-8) were examined: 20, 40, 60, 100, 140, 200, 280, and 360 mg, respectively. Two patients at DL8 received the free base form of Z-endoxifen on day 1 rather than the hydrochloride salt to assess the pharmacokinetics of that formulation.
Toxicities were graded using Common Terminology Criteria for Adverse Events (CTCAE) version 4.0. Toxicities were required to resolve to grade 2 or below prior to initiation of the next cycle. Occurrence of a DLT was to result in a dose reduction following resolution to grade ≤ 2. No more than 2 dose reductions were allowed per patient on study. The MTD was defined as the highest dose level at which no more than 1 in 6 patients experienced a DLT.

ERα = target: T1, ERα (Homo sapiens, UniProt P03372); assay: 18F-FES PET/CT imaging (blocking estrogen receptor binding); assay type: in vivo; settings: after 1–5 days of oral treatment
T1 construct: from tissue; host or cells: patients' tumors in vivo, e.g. a pre-sacral soft tissue lesion of serous ovarian cancer
T1 sequence (P03372 1-595): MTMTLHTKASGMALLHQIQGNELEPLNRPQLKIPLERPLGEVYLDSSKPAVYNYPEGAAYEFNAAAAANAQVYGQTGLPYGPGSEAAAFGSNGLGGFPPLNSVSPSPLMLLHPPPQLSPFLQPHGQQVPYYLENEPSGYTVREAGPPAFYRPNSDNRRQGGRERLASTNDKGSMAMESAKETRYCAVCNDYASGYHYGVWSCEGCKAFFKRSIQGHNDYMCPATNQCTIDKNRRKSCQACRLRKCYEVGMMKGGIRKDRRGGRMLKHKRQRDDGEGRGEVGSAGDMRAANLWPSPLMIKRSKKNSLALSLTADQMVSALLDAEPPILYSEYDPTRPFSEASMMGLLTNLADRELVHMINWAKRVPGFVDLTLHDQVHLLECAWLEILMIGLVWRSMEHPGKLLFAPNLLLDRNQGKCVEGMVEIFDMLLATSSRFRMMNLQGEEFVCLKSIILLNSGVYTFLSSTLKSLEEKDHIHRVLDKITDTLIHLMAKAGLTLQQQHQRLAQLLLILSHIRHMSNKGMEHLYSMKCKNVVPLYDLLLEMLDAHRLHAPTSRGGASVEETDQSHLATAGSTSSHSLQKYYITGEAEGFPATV
Method: The pharmacodynamic effect of Z-endoxifen, blocking estrogen receptor binding, was assessed by ^18F-FES PET/CT imaging. […] Twenty patients in this trial agreed to be screened by ^18F-FES PET/CT imaging to assess ER status. Ten patients who were positive prior to treatment were re-imaged from 1 to 5 days after treatment initiation. We present here images taken after 3 days of treatment from a patient with serous ovarian cancer whose imaging has not previously been reported (patient 40, DL8, Figure 2). […] This patient developed a bowel obstruction during cycle 1 attributed to their disease and chose to come off study. Other images from patients in this trial have been previously reported.
The uptake of ^18F-FES was measured using PET/CT imaging in patients enrolled in the present trial before and after 1–5 days of treatment with oral Z-endoxifen HCl as previously described. Five additional patients were scanned following the publication of the imaging approach. The images presented here are from one of these 5 patients.

CC/C(=C(\c1ccc(O)cc1)c1ccc(OCCNC)cc1)c1ccccc1 [Z-endoxifen]
Anemia, grade 2 ([1]; DL2 40 mg, n = 6): 1 patients
Elevated ALT, grade 2 ([1]; DL2 40 mg, n = 6): 1 patients
Fatigue, grade 2 ([1]; DL2 40 mg, n = 6): 1 patients
Lymphopenia, grade 2 ([1]; DL2 40 mg, n = 6): 3 patients
Mucositis (oral), grade 2 ([1]; DL2 40 mg, n = 6): 1 patients
Thromboembolic event, grade 2 ([1]; DL2 40 mg, n = 6): 1 patients
Thromboembolic event, grade 4 ([1]; DL2 40 mg, n = 6): 1 patients
Vestibular disorder, grade 2 ([1]; DL2 40 mg, n = 6): 1 patients
DLT ([1]; DL2 (40 mg/day), patient 4): grade 4 pulmonary embolism
Anemia, grade 2 ([1]; DL3 60 mg, n = 3): 1 patients
Leukopenia, grade 2 ([1]; DL3 60 mg, n = 3): 1 patients
Neutropenia, grade 2 ([1]; DL3 60 mg, n = 3): 1 patients
Anemia, grade 2 ([1]; DL4 100 mg, n = 3): 1 patients
Lymphopenia, grade 2 ([1]; DL4 100 mg, n = 3): 1 patients
Fatigue, grade 2 ([1]; DL5 140 mg, n = 3): 1 patients
Leukopenia, grade 2 ([1]; DL5 140 mg, n = 3): 1 patients
Neutropenia, grade 2 ([1]; DL5 140 mg, n = 3): 1 patients
Reflux, grade 2 ([1]; DL5 140 mg, n = 3): 1 patients
Fatigue, grade 2 ([1]; DL6 200 mg, n = 3): 1 patients
Hypertension, grade 2 ([1]; DL6 200 mg, n = 3): 1 patients
Abdominal pain, grade 3 ([1]; DL7 280 mg, n = 7): 1 patients
Anemia, grade 2 ([1]; DL7 280 mg, n = 7): 2 patients
Diarrhea, grade 3 ([1]; DL7 280 mg, n = 7): 1 patients
Elevated ALT, grade 2 ([1]; DL7 280 mg, n = 7): 1 patients
Elevated ALT, grade 3 ([1]; DL7 280 mg, n = 7): 1 patients
Elevated AST, grade 2 ([1]; DL7 280 mg, n = 7): 1 patients
Fatigue, grade 2 ([1]; DL7 280 mg, n = 7): 1 patients
Hypophosphatemia, grade 2 ([1]; DL7 280 mg, n = 7): 1 patients
Hypophosphatemia, grade 4 ([1]; DL7 280 mg, n = 7): 1 patients
Lymphopenia, grade 2 ([1]; DL7 280 mg, n = 7): 1 patients
DLT ([1]; DL7 (280 mg/day), patient 22): grade 3 ALT elevation
Anemia, grade 2 ([1]; DL8 360 mg, n = 12): 4 patients
Anemia, grade 3 ([1]; DL8 360 mg, n = 12): 1 patients
Colonic perforation, grade 4 ([1]; DL8 360 mg, n = 12): 1 patients
Constipation, grade 2 ([1]; DL8 360 mg, n = 12): 1 patients
Dehydration, grade 3 ([1]; DL8 360 mg, n = 12): 1 patients
Dyspepsia, grade 2 ([1]; DL8 360 mg, n = 12): 1 patients
Elevated ALT, grade 2 ([1]; DL8 360 mg, n = 12): 2 patients
Elevated ALT, grade 3 ([1]; DL8 360 mg, n = 12): 1 patients
Elevated AST, grade 2 ([1]; DL8 360 mg, n = 12): 1 patients
Fatigue, grade 2 ([1]; DL8 360 mg, n = 12): 1 patients
Hyponatremia, grade 3 ([1]; DL8 360 mg, n = 12): 1 patients
Hypophosphatemia, grade 2 ([1]; DL8 360 mg, n = 12): 2 patients
Hypophosphatemia, grade 3 ([1]; DL8 360 mg, n = 12): 2 patients
Leukopenia, grade 2 ([1]; DL8 360 mg, n = 12): 1 patients
Lymphopenia, grade 2 ([1]; DL8 360 mg, n = 12): 5 patients
Lymphopenia, grade 3 ([1]; DL8 360 mg, n = 12): 1 patients
Nausea, grade 2 ([1]; DL8 360 mg, n = 12): 1 patients
Rash, grade 2 ([1]; DL8 360 mg, n = 12): 1 patients
Stroke, grade 2 ([1]; DL8 360 mg, n = 12): 1 patients
Thromboembolic event, grade 2 ([1]; DL8 360 mg, n = 12): 1 patients
adverse event at end of cycle 1, disease most likely cause ([1]; DL8 (360 mg), patient with fallopian tube carcinoma): grade 4 colonic perforation
grade 4 adverse events potentially related to the study agent ([1]; all dose levels): Three grade 4 adverse events
anemia, grade ≥ 2 (grades 2 and 3), study-related ([1]; of 40 patients enrolled): 10 patients
lymphopenia, grade ≥ 2 (grades 2 and 3), study-related ([1]; of 40 patients enrolled): 11 patients
tolerability ([1]; oral daily, 20-360 mg/day): generally well tolerated
maximum tolerated dose ([1]; oral daily, up to 360 mg/day): No maximum tolerated dose was established
18F-FES tracer uptake on PET/CT (ERα): FES tracer uptake could be reduced
